Source: patent US8299237B2, “Nucleic acid sequences comprising NF-κB binding site within O(6)-methylguanine-DNA-methyltransferase (MGMT) promoter region and uses thereof for the treatment of cancer and immune-related disorders” (Hadasit Medical Research Services & Development Ltd., priority 2007, dated 2012)

Assays:
NF-κB/p65 = biological target: T1, NF-κB/p65 (Homo sapiens, UniProt Q04206); assay: Gel electrophoretic mobility shift assay (EMSA) with HeLa nuclear extracts; type: binding; conditions: nuclear extracts from Hela cells exposed to TNFα (200 u/ml)
T1 construct: 10 μg of nuclear extracts with 0.3 ng of ^32P-labeled synthetic double-stranded oligodeoxynucleotides; endogenous in cells; host or cells: HeLa cells treated with TNFα (nuclear extract)
Protocol: Nuclear extracts were prepared from HeLa cells treated with 200 units/ml of TNFα for 15 min. Oligodeoxynucleotides spanning the NF-κB binding site within the MGMT promoter (also denoted by SEQ ID NO. 4 and 5), with or without a C-G mutation (also denoted by SEQ ID NO. 6 and 7) or the consensus NF-κB site from HIV LTR (SEQ ID NO. 3, also shown in FIG. 1B), were end-labeled by a fill-in reaction using the Klenow fragment of DNA polymerase (New England Biolabs, Beverly, Mass.). DNA binding reactions were performed by incubation on ice for 15 min of 10 μg of nuclear extracts with 0.3 ng of ^32P-labeled synthetic double-stranded oligodeoxynucleotides in the presence of 10 mM Hepes, pH 7.9, 10% glycerol, 50 mM KCl, 5 mM MgCl2, 5 mM dithiothreitol, 2 μg of poly (dI·dC), and 0.1% Nonidet P-40. Competitor oligonucleotides were incubated in 100-fold molar excess and preincubated in the reaction mixtures for 10 min before addition of the radiolabeled probe. For supershift experiments, 1 μl of p65 antibody (MAB16200, Chemicon International Inc., Temecula, Calif.) was added during the preincubation period.
To explore whether the NF-κB sites found within the MGMT promoter actually bind NF-κB, the inventors next performed an EMSA analysis of nuclear extracts from HeLa cells treated with TNFα and with labeled DNA fragments spanning the region containing the NF-κB motif. As shown by FIG. 1C, this process generated a nuclear binding factor specific for these regions (FIG. 1C, lanes 5 and 9), of the same size as the complex attached to the consensus HIV-κB site as also denoted by SEQ ID NO. 3 (FIG. 1C, lane 2) as indicated by the black arrows. […] Binding specificity was confirmed by competition with cold HIV-κB oligonucleotide. […] This confirmed that p65 binds to both NF-κB putative sites. The upper band in lane 9 (FIG. 1C) is not the same size as the NF-κB complex attached to the canonical HIV-κB oligonucleotide (FIG. 1C, lane 2). It was neither shifted when incubated with NF-κB/p65 antibodies (lane 10), nor abolished in the presence of unlabeled HIV-κB probe (FIG. 1C, lane 11). Based on the finding that the MGMT-κB2 binding site overlaps the Sp1 site, the inventors speculate that this complex may further contain Sp1. This speculation is also supported by its size, which is the same as that of the complex attached to the Sp1 oligonucleotide (FIG. 1C, lane 1).

[1] = test system: MGMT-kB1-Luc reporter construct induced by NF-κB/p65; assay: Luciferase reporter assay, MGMT-kB1-Luc co-transfected with NF-κB/p65; type: cell-based, human
Protocol: Transient transfections were performed in 6-well plates, using the FuGene6 transfection reagent (Roche Diagnostics GmbH, Mannheim, Germany), according to the manufacturer's instructions. U87MG, T98G, and A172 cells were transfected with pNF-κB-Luc reporter Vector (Clontech, Palo Alto, Calif.), while RG2 and U87MG were transfected with MGMT-Luc [construct p-954/+24 mL [Biswas T. et al. Oncogene 18:525-32 (1999)] kindly provided by Sankar Mitra] (1 μg/well). CMVβ-galactosidase expression vector (CMVβgal-Clonthech) was included (0.1 μg/well) in each transfection to normalize transfection efficiency. HEK293 cells were transfected with CMVβgal alone or along with one or more of the following plasmids: CMVp65, CMVΔNIκB, CMVp50, CMVcJun. CMVp65 and CMVΔNIκB plasmids were kindly provided by Prof. Yinon. Ben-Neriah (The Hebrew University, Jerusalem, Israel), CMVp50 and CMVcJun were kindly provided by Dr. Danielle Melloul (Hadassah Hebrew University Medical Center, Jerusalem, Israel).
At 24 hrs following transfection, the cells were lysed for 15 min on ice with 200 μl of luciferase lysis buffer (Promega, Madison, Wis.). Luciferase assays were carried out using a Promega assay kit and a luminometer (EG&G Berthold, Bad Wildbad, Germany). The activity was normalized to β-galactosidase activity (Promega) and plotted as the mean±s.d. of triplicates from a representative experiment.
For the cloning of the MGMT-luc constructs the reporter vector p-TA-Luc (Clontech, Palo Alto, USA) was used. The plasmid contains TATA box motif upstream to a luciferase reporter gene. A double stranded DNA corresponding to four repeats of each sequence as indicated by FIG. 8A (also denoted by SEQ ID NO. 44, 45, 46 and 47), was synthesis by syntezza LTD and ligated upstream to the TATA box.
To test the activity of these sites, several luciferase reporter genes bearing four copies of either intact or mutant sequence, of each of the two NF-κB sites (NF-κB1 and NF-κB2), were constructed as indicated in Experimental procedures. […] An inhibition of approximately 50% was observed using 100 nM ODN. Negative control using the CMVΔNIκB (ΔN)-Luc construct as well as positive control using the canonical HIV-κB-Luc reporter construct, confirmed validity of the data.
Induction of over expression of NF-κB in HEK 293T cells by transfection of a CMV-NF-κB/p65 generated a 50-fold elevation in luciferase expression driven by the Co-transfected reporter construct MGMT-kB1-Luc. […] Inhibition of approximately 90% was induced by 150 nM LMODN. […] No inhibition was detected when a mutant LMODN was introduced into the cells, indicating the specificity of MGMT-kB1-LMODN (of SEQ ID NO. 40 and 41). […] 3 (HIV-κB-Luc construct).

T1 sequence (Q04206 whole entry): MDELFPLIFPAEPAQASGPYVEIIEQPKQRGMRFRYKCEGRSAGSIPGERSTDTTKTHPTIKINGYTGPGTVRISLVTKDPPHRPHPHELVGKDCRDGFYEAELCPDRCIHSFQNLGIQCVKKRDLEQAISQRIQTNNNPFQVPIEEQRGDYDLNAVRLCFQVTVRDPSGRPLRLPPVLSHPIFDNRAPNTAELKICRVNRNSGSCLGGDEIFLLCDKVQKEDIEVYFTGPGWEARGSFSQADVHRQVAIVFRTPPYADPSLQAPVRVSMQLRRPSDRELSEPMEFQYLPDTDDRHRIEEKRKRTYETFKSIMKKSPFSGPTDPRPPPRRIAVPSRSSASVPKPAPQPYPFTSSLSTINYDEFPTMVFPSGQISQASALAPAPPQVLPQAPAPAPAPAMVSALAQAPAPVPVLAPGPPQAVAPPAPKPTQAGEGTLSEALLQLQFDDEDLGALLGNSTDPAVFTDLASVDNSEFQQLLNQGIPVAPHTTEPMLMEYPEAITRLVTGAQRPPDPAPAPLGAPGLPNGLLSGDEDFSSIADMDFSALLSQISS

| Substance | binding of NF-κB in nuclear extract to 32P-labeled probe (in words) (NF-κB/p65) | inhibition of luciferase activity ([1]; 100 nM ODN, HEK293T, MGMT-κB1 reporter construct + NF-κB/p65 (FIG. 7)) | effect on luciferase activity driven by MGMT-kB1 reporter (in words) ([1]; HEK293T co-transfected with MGMT-kB1 reporter and NF-κB/p65) |
| --- | --- | --- | --- |
| MGMT-κB2: EMSA oligodeoxynucleotide probe spanning the NF-κB binding site MGMT-κB2 within the MGMT promoter (DNA GGCGGGAACACCCCGCCCCGCCCG; DNA, backbone not given here; further chemistry not fully specified; listed as Homo sapiens) | formation of complexes of a similar size |  |  |
| MGMT-κB-1: EMSA oligodeoxynucleotide probe spanning the NF-κB binding site MGMT-κB1 within the MGMT promoter (DNA TGATGGCTTCTGTAAAGTCCCCATCTCCAAATAAGGTCAC; DNA, backbone not given here; further chemistry not fully specified; listed as Homo sapiens) | formation of complexes of a similar size |  |  |
| HIV-κB: consensus NF-κB site from HIV LTR, control probe (DNA GGCTTCAGAGGGGACTTTCCGAGA; labeled probe, label not given here, further chemistry not given here; listed as Homo sapiens) | formation of complexes of a similar size |  |  |
| SEQ ID NO. 36 and 37: double stranded LNA modified ODN decoy of MGMT-kB1 site; forward SEQ ID NO. 36, reverse SEQ ID NO. 37 (sense TAAGAGGGACTTTACGGGACTTTACTACAT; antisense ATGTAGTAAGTCCCGTAAAGTCCCTCTTA; LNA modifications, chemistry not fully specified; listed as Homo sapiens) [double stranded LNA modified ODN decoy of MGMT-kB1 site; 37] |  | approximately 50% | decreased the luciferase activity in a dose-dependent manner |
| MGMT-κB1 Mut: MGMT-κB1 oligonucleotide with mutated site (C-to-G substitution) (DNA TGATGGCTTCTGTAAAGTCGGCATCTCCAAATAAGGTCAC; DNA, backbone not given here; further chemistry not fully specified; listed as Homo sapiens) | Specific binding was not observed |  |  |
| MGMT-κB2 Mut: MGMT-κB2 oligonucleotide with mutated site (C-to-G substitution) (DNA GGCGGGAACACGGCGCCCCGCCCG; DNA, backbone not given here; further chemistry not fully specified; listed as Homo sapiens) | Specific binding was not observed |  |  |
